Measured values as given in patent US20160047748A1, “FLUORESCENT PROBE” (THE UNIVERSITY OF TOKYO, priority 2013, published 2016).

Tests used:
HeLa cells [1] = assay: Ca^2+-imaging of living cells; format: cell-based
Protocol: Ca^2+-imaging of living cells was carried out using CaTM-3-AM. In order to study the utility thereof, a comparison was made with CaTM-2-AM(N-[2-[(acetyloxy)]-2-oxoethyl]amino]-N-[2-[2-[2-[bis[2-[(acetyloxy)methoxy]-2-oxoethyl]amino]-5-[[4-(1,8-dichloro-2,9-dihydro-7-hydroxy-9,9-dimethyl-2-oxo-9-silaanthracen-10-yl)-3-methylbenzoyl]amino]phenoxy]ethoxy]phenyl]-glycine(acetyloxy)methyl ester), which has a methyl group at position 2 of the benzene ring instead of a carboxy group. HeLa cells were incubated for 30 minutes at 37° C. together with 3 μM of CaTM-2-AM or CaTM-3-AM in a Hank's balanced salt solution (HBSS) containing 0.03% DMSO. The cells were washed three times using HBSS, then HBSS was added and the cells were observed using a confocal microscope SP5 (Leica) with an excitation wavelength of 590 nm and a fluorescence wavelength of 610 to 680 nm.
Ca^2+ imaging was carried out during stimulation by histamine and ionomycin using cells to which CaTM-3-AM had been added. Histamine hydrochloride (1 μM) was added after 1 minute from the beginning of observation, and ionomycin (5 μM) was added after 4 minutes from the beginning of observation.

HeLa cells [2] = assay: Cell imaging using ZnTM-1; format: cell-based; conditions: 10 μM, 30 min at 37° C., HBSS 1% DMSO, ZnSO4 (50 μM)/pyrithione (5 μM), then TPEN (100 μM)
Protocol: Cell imaging was carried out using ZnTM-1. HeLa cells were incubated for 30 minutes at 37° C. together with 10 μM of ZnTM-1 in a Hank's balanced salt solution (HBSS) containing 1% DMSO. The mixture was washed once using HBSS, then HBSS was added and the cells were observed using an epifluorescence microscope IX-71 (Olympus) with an excitation wavelength of 565 to 585 nm and a fluorescence wavelength of 600 to 690 nm. The observation was carried out in every 30 seconds, ZnSO4 (50 μM) and pyrithione (5 μM), which is an ionophore, were added after 2 minutes and 30 seconds from the beginning of observation, and TPEN (100 μM), which is a cell-membrane-permeating zinc chelator, was added after 6 minutes from the beginning of observation.

[3] = Optical characteristics, Zn^2+ addition experiment; format: physicochemical; conditions: for Φf1: fluorescence quantum yield
Protocol: (§1) The optical characteristics, absorbance spectra, and fluorescence spectra of the resulting ZnTM-1 depending on pHs are shown in FIG. 1. The Zn^2+ addition experiment was carried out by adding ZnSO4 to a solution obtained by adding ZnTM-1 (1 μM) in a buffer of 0.1M HEPES (pH 7.4) containing 15% DMSO. pKa was determined by biphasic fitting using the absorbance at the absorbance maximum wavelength. EDTA (100 μM) was added in order to eliminate the effect of trace metal ions during the measurement of quantum yield when Zn^2+ had not been added, and then measurement was carried out.

physchem = format: physicochemical
Protocol: as §1, with “pH-induced changes were measured using” for “Zn^2+ addition experiment was carried out by adding ZnSO4 to a solution obtained by adding”, “sodium phosphate” for “HEPES (pH 7.4)”

[4] = ZnTM-1 1 μM, 0.1M HEPES (pH 7.4) containing 15% DMSO, Zn^2+ not added

SMILES	Brightness of fluorescence image (HeLa cells [1]; HeLa cells, 3 μM, 30 min at 37° C., HBSS 0.03% DMSO, excitation 590 nm, fluorescence 610 to 680 nm)	Quantity of fluorescent probe taken into cells (HeLa cells [1]; HeLa cells, 3 μM, 30 min at 37° C., compared with CaTM-2-AM)	Detection of variation in intracellular Ca^2+ during stimulation (HeLa cells [1]; histamine hydrochloride (1 μM) after 1 minute, ionomycin (5 μM) after 4 minutes)	Cell uptake and function as Zn^2+-detecting fluorescent probe (HeLa cells [2])	λabs (nm) [3, 4] [nm]	λf1 (nm) [3, 4] [nm]	Φf1 ([3]; + 10 eq Zn^2+ (ZnSO4), 0.1M HEPES (pH 7.4) containing 15% DMSO)	Φf1 ([3]; Zn^2+ not added, EDTA (100 μM) added)	pKa (physchem)
CC(=O)OCOC(=O)CN(CC(=O)OCOC(C)=O)c1ccccc1OCCOc1cc(NC(=O)c2ccc(C3=C4C=CC(=O)C(Cl)=C4[Si](C)(C)c4c3ccc(O)c4Cl)c(C(=O)O)c2)ccc1N(CC(=O)OCOC(C)=O)CC(=O)OCOC(C)=O [CaTM-3-AM, 5-[[[4-[bis[2-[(acetyloxy)methoxy]-2-oxoethyl]amino]-5-[2-[2-[bis[2-[(acetyloxy)methoxy]-2-oxoethyl]amino]phenoxy]ethoxy]-phenyl]amino]carbonyl]-2-(1,8-dichloro-2,9-dihydro-7-hydroxy-9,9-dimethyl-2-oxo-9-silaanthracen-10-yl)-benzoic acid]	brighter fluorescence image than does CaTM-2-AM	a larger quantity of fluorescent probes is taken into cells	can be accurately ascertained	–	–	–	–	–	–
C[Si]1(C)C2=C(F)C(=O)C=CC2=C(c2ccc(C(=O)Nc3ccc(NCCN(Cc4ccccn4)Cc4ccccn4)cc3)cc2C(=O)O)c2ccc(O)c(F)c21 [ZnTM-1, 5-[[[4-[[2-[bis(2-pyridinylmethyl)amino]ethyl]amino]phenyl]amino]carbonyl]-2-(1,8-difluoro-2,9-dihydro-7-hydroxy-9,9-dimethyl-2-oxo-9-silaanthracen-10-yl)benzoic acid]	–	–	–	is taken into the cell and functions effectively as a Zn^2+-detecting fluorescent probe	589	601	0.281	0.062	7.2
